Calls of active or inactive are those of the source. The calls are words filed in the database; no cut-off is given here.
Key:
Huh-7 [1] = assay: Inhibition of autophagy in human Huh-7 cells assessed as fold increase in LC3B-II protein expression at 20 uM incubated for 24 hrs by immunoblot analysis relative to control; assay type: functional
Huh-7 [2] = assay: Inhibition of autophagy in human Huh-7 cells assessed as reduction in LC3B-I protein expression at 10 to 20 uM incubated for 24 hrs by immunoblot analysis; assay type: functional, cell-based; details: dose 10-20 µM
Huh-7 [3] = assay: Inhibition of autophagy in human Huh-7 cells assessed as fold increase in LC3B-II protein expression at 10 uM incubated for 24 hrs by immunoblot analysis relative to control; assay type: functional
[4] = target: T1, Cysteine protease ATG4B (Homo sapiens) (UniProt Q9Y4P1); assay: (§1) Inhibition of N-terminal His6/SUMO-tagged full length human ATG4B expressed in Escherichia coli BL21 (DE3) cells using His-LC3B-GST as substrate preincubated with enzyme for 1 hr followed by substrate addition for 1 hr by HTRF assay; details: time 2.0 hrs
T1 sequence (whole entry): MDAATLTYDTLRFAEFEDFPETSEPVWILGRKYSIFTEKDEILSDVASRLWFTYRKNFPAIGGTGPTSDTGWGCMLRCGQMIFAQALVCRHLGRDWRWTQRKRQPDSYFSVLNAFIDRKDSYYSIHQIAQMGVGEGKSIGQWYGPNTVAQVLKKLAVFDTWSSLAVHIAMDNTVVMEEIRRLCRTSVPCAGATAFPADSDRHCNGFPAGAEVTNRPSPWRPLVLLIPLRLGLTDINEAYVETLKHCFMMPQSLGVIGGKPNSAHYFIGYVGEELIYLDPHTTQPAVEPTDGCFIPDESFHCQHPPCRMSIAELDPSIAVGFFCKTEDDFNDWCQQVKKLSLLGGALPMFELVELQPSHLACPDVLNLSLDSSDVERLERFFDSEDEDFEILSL

Cysteine protease ATG4B [5] = target: T2, Cysteine protease ATG4B (Homo sapiens, UniProt Q9Y4P1); assay: as §1
T2 sequence (Q9Y4P1 whole entry): T1 sequence (whole entry)

[6] = target: T1, Cysteine protease ATG4B (Homo sapiens); assay: Inhibition of N-terminal His6/SUMO-tagged full length human ATG4B expressed in Escherichia coli BL21 (DE3) cells assessed as reduction in substrate cleavage using His-LC3B-GST as substrate preincubated with enzyme for 1 hr followed by substrate addition for 30 mins by gel electrophoresis analysis; details: dose 3.125-50 µM, time 1.5 hrs
[7] = target: T1, Cysteine protease ATG4B (Homo sapiens); assay: Binding affinity to N-terminal His6/SUMO-tagged full length human ATG4B expressed in Escherichia coli BL21 (DE3) cells at 100 uM by CPMG spectroscopy
Cysteine protease ATG4B [8] = target: T2, Cysteine protease ATG4B; assay: Binding affinity to N-terminal His6/SUMO-tagged full length human ATG4B expressed in Escherichia coli BL21 (DE3) cells by SPR assay
Huh-7 [9] = assay: Inhibition of autophagy in human Huh-7 cells assessed as fold increase in p62 protein expression at 10 uM incubated for 24 hrs by immunoblot analysis relative to control; assay type: functional
Huh-7 [10] = assay: Inhibition of autophagy in human Huh-7 cells assessed as fold increase in p62 protein expression at 20 uM incubated for 24 hrs by immunoblot analysis relative to control; assay type: functional
SK-HEP1 [11] = assay: Inhibition of autophagy in human SK-HEP1 cells assessed as reduction in LC3B-I protein expression at 10 to 20 uM incubated for 24 hrs by immunoblot analysis; assay type: functional, cell-based; details: dose 10-20 µM
SK-HEP1 [12] = assay: Inhibition of autophagy in human SK-HEP1 cells assessed as fold increase in LC3B-II protein expression at 10 uM incubated for 24 hrs by immunoblot analysis relative to control; assay type: functional
SK-HEP1 [13] = assay: Inhibition of autophagy in human SK-HEP1 cells assessed as fold increase in LC3B-II protein expression at 20 uM incubated for 24 hrs by immunoblot analysis relative to control; assay type: functional
SK-HEP1 [14] = assay: Inhibition of autophagy in human SK-HEP1 cells assessed as fold increase in p62 protein expression at 10 uM incubated for 24 hrs by immunoblot analysis relative to control; assay type: functional
SK-HEP1 [15] = assay: Inhibition of autophagy in human SK-HEP1 cells assessed as fold increase in p62 protein expression at 20 uM incubated for 24 hrs by immunoblot analysis relative to control; assay type: functional
Huh-7 [16] = assay: Inhibition of autophagy in human Huh-7 cells overexpressing TurboRFP-EGFP-LC3B assessed as increase in yellow dot puncta formation at 10 uM incubated for 24 hrs by immunofluorescence assay; assay type: functional, cell-based
Huh-7 [17] = assay: Inhibition of autophagy in human Huh-7 cells overexpressing TurboRFP-EGFP-LC3B assessed as increase in number of red dots at 10 uM incubated for 24 hrs by immunofluorescence assay; assay type: functional, cell-based
[18] = Inhibition of sorafenib-induced autophagic flux in human Huh-7 cells assessed as fold increase in LC3B-II protein expression at 20 uM incubated for 24 hrs in presence of 5 uM sorafenib by immunoblot analysis relative to control; assay type: functional
[19] = Inhibition of sorafenib-induced autophagic flux in human Huh-7 cells assessed as fold increase in LC3B-II protein expression at 20 uM incubated for 24 hrs in presence of 10 uM sorafenib by immunoblot analysis relative to control; assay type: functional
[20] = Inhibition of sorafenib-induced autophagic flux in human Huh-7 cells assessed as fold increase in p62 protein expression at 20 uM incubated for 24 hrs in presence of 5 uM sorafenib by immunoblot analysis relative to control; assay type: functional
[21] = Inhibition of sorafenib-induced autophagic flux in human Huh-7 cells assessed as fold increase in p62 protein expression at 20 uM incubated for 24 hrs in presence of 10 uM sorafenib by immunoblot analysis relative to control; assay type: functional
[22] = Inhibition of sorafenib-induced autophagic flux in human SK-HEP1 cells assessed as fold increase in LC3B-II protein expression at 20 uM incubated for 24 hrs in presence of 5 uM sorafenib by immunoblot analysis relative to control; assay type: functional
[23] = Inhibition of sorafenib-induced autophagic flux in human SK-HEP1 cells assessed as fold increase in LC3B-II protein expression at 20 uM incubated for 24 hrs in presence of 10 uM sorafenib by immunoblot analysis relative to control; assay type: functional
[24] = Inhibition of sorafenib-induced autophagic flux in human SK-HEP1 cells assessed as fold increase in p62 protein expression at 20 uM incubated for 24 hrs in presence of 5 uM sorafenib by immunoblot analysis relative to control; assay type: functional
[25] = Inhibition of sorafenib-induced autophagic flux in human SK-HEP1 cells assessed as fold increase in p62 protein expression at 20 uM incubated for 24 hrs in presence of 10 uM sorafenib by immunoblot analysis relative to control; assay type: functional
Huh-7 [26] = assay: Inhibition of sorafenib-induced autophagic flux in human Huh-7 cells overexpressing TurboRFP-EGFP-LC3B assessed as increase in yellow dot puncta formation at 10 uM incubated for 24 hrs in presence of 5 uM sorafenib by immunofluorescence assay; assay type: functional, cell-based
Huh-7 [27] = assay: Cytotoxicity against human Huh-7 cells assessed as reduction in cell viability incubated for 72 hrs by CellTiter-Glo luminescent assay; assay type: functional, cell-based; details: Huh-7, 72 h
SK-HEP1 [28] = assay: Cytotoxicity against human SK-HEP1 cells assessed as reduction in cell viability incubated for 72 hrs by CellTiter-Glo luminescent assay; assay type: functional, cell-based; details: SK-HEP1, 72 h
IMR-90 = assay: Cytotoxicity against human IMR-90 cells; assay type: toxicity, cell-based
MRC5 = assay: Cytotoxicity against human MRC5 cells; assay type: toxicity, cell-based
Huh-7 [29] = assay: Potentiation of sorafenib-induced antiproliferative activity against human Huh-7 cells assessed as inhibition of cell proliferation at 20 uM incubated for 5 days in presence of sorafenib by CTG assay; assay type: functional, cell-based; details: time 5.0 day
SK-HEP1 [30] = assay: Potentiation of sorafenib-induced antiproliferative activity against human SK-HEP1 cells assessed as inhibition of cell proliferation at 20 uM incubated for 5 days in presence of sorafenib by CTG assay; assay type: functional, cell-based; details: time 5.0 day
Huh-7 [31] = assay: Inhibition of colony formation in human Huh-7 cells at 10 uM incubated for 14 days in presence of sorafenib by crystal violet staining based analysis; assay type: functional, cell-based; details: time 14.0 day
SK-HEP1 [32] = assay: Inhibition of colony formation in human SK-HEP1 cells at 10 uM incubated for 14 days in presence of sorafenib by crystal violet staining based analysis; assay type: functional, cell-based; details: time 14.0 day

## S=C(Nc1ccc2nc(-c3ccco3)c(-c3ccco3)nc2c1)N1CCCCCC1
Huh-7 [1]
  fold change (FC): 1.6
Huh-7 [2]
  inhibition: Active
Huh-7 [3]
  fold change (FC): 1.5
[4]
  inhibition: Dose-Dependent Effect
Cysteine protease ATG4B [5]
  IC50: 3.08 µM
[6]
  inhibition: Dose-Dependent Effect
[7]
  Activity: Active
Cysteine protease ATG4B [8]
  Kd: 14.3 µM
Huh-7 [9]
  fold change (FC): 2.3
Huh-7 [10]
  fold change (FC): 2.8
SK-HEP1 [11]
  inhibition: Active
SK-HEP1 [12]
  fold change (FC): 1.46
SK-HEP1 [13]
  fold change (FC): 1.6
SK-HEP1 [14]
  fold change (FC): 2.1
SK-HEP1 [15]
  fold change (FC): 2.4
Huh-7 [16]
  inhibition: Active
Huh-7 [17]
  inhibition: Active
[18]
  fold change (FC): 0.76
[19]
  fold change (FC): 0.64
[20]
  fold change (FC): 1.1
[21]
  fold change (FC): 0.84
[22]
  fold change (FC): 0.82
[23]
  fold change (FC): 0.66
[24]
  fold change (FC): 0.85
[25]
  fold change (FC): 0.82
Huh-7 [26]
  inhibition: Active
Huh-7 [27]
  IC50: 25.3 µM
SK-HEP1 [28]
  IC50: 23.6 µM
IMR-90
  Activity: Non-Toxic
MRC5
  Activity: Non-Toxic
Huh-7 [29]
  Activity: Active
SK-HEP1 [30]
  Activity: Active
Huh-7 [31]
  inhibition: Active
SK-HEP1 [32]
  inhibition: Active

From ChEMBL document CHEMBL5252650, “An ATG4B inhibitor blocks autophagy and sensitizes Sorafenib inhibition activities in HCC tumor cells” (Bioorg Med Chem, 2023)
